Measured values taken from patent publication US20120122860A1, “SOLID FORMS OF SULFONAMIDES AND AMINO ACIDS” (Plexxikon, Inc., priority 2009, published 2012).

Tests used:
C-Raf = C-Raf (Homo sapiens, UniProt P04049); assay: Kinase activity assay, C-Raf
B-Raf V600E = B-Raf V600E (Homo sapiens, UniProt P15056, V600E); assay: Kinase activity assay, B-Raf V600E; type: biochemical; details: read-out: activity toward kinase B-Raf V600E, IC50
Src = Src (Homo sapiens, UniProt P12931); assay: Kinase activity assay, Src
Sequence of Src (P12931 whole entry): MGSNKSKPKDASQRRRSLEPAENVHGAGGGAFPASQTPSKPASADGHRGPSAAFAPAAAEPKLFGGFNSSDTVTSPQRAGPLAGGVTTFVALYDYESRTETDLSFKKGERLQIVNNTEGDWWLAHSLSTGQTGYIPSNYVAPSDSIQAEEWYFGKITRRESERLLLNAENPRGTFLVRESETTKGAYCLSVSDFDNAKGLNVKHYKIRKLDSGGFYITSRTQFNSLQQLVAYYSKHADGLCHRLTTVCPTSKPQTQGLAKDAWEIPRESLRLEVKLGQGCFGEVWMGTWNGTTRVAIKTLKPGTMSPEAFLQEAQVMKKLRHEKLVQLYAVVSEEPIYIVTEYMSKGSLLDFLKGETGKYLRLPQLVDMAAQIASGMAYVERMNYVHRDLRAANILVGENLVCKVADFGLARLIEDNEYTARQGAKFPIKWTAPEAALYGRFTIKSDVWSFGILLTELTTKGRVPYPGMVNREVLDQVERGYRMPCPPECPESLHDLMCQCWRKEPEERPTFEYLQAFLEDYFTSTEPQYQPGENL

A-Raf = target: T1, A-Raf (Homo sapiens, UniProt P10398); assay: Kinase activity assay, A-Raf
T1 sequence (P10398 1-606): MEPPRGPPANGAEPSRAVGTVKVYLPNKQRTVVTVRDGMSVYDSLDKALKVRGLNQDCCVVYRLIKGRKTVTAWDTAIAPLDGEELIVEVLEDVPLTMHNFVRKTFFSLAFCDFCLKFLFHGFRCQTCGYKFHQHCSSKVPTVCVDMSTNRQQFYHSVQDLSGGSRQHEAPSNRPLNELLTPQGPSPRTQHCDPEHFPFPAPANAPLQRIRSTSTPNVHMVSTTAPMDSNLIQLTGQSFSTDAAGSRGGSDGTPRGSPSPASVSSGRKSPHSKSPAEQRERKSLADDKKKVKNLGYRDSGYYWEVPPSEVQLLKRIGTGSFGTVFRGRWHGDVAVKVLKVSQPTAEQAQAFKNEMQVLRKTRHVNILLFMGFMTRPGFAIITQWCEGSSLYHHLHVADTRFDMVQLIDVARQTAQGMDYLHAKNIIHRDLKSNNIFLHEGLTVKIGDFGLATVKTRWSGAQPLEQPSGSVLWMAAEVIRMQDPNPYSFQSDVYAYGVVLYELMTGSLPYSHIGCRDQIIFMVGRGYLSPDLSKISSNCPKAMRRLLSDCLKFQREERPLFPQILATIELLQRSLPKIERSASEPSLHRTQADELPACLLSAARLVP

B-Raf = B-Raf (Homo sapiens, UniProt P15056); assay: Kinase activity assay, B-Raf; type: biochemical; details: read-out: activity toward kinase B-Raf, IC50
Sequence of B-Raf (P15056 whole entry): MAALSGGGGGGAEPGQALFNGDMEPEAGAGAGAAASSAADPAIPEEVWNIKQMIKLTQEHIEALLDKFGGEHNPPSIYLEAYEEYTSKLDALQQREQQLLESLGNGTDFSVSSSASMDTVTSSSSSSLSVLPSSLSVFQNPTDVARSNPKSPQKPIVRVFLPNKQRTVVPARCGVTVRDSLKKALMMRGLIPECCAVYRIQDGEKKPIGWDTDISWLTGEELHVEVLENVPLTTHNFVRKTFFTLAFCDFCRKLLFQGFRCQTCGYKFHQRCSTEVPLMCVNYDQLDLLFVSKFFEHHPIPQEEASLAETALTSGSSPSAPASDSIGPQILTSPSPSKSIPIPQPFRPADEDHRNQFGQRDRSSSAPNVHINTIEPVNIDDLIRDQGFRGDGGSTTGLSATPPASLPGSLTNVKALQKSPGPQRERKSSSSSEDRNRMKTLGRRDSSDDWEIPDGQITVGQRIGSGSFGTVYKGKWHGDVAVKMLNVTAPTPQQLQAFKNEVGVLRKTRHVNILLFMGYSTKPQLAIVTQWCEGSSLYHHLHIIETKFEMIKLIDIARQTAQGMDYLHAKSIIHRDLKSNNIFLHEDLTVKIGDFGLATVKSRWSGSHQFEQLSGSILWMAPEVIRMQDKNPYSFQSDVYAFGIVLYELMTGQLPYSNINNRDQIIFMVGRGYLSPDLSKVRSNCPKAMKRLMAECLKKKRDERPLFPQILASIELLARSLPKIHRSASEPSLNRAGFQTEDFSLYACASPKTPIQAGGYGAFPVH

Kit = Kit (Homo sapiens, UniProt P10721); assay: Kinase activity assay, Kit
Sequence of Kit (P10721 26-976): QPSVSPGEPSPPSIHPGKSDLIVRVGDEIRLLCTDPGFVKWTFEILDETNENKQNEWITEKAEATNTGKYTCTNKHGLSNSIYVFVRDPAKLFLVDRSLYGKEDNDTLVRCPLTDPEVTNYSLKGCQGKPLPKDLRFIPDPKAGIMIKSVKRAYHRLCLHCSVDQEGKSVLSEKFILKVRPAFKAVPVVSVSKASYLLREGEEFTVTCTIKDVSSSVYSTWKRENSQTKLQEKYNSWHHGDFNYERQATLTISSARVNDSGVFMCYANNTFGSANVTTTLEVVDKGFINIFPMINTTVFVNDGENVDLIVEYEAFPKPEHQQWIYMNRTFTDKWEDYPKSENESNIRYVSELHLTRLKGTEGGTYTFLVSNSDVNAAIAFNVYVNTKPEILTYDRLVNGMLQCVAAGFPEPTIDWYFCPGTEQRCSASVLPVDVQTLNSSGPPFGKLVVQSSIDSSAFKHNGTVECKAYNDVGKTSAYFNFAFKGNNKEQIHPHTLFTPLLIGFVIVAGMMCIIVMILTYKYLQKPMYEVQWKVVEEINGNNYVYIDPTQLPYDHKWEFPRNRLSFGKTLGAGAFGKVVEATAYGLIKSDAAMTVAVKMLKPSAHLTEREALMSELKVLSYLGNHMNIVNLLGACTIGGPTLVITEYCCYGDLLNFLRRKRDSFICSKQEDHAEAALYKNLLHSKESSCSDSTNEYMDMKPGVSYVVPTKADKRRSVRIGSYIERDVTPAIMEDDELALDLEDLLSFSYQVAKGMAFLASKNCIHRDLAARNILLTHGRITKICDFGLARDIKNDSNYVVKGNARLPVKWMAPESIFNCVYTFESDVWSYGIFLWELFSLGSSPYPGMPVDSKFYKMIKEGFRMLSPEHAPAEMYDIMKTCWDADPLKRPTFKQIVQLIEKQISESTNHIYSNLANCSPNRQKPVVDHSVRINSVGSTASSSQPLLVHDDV

Kdr = Kdr (Homo sapiens, UniProt P35968); assay: Kinase activity assay, Kdr
Sequence of Kdr (P35968 20-1356): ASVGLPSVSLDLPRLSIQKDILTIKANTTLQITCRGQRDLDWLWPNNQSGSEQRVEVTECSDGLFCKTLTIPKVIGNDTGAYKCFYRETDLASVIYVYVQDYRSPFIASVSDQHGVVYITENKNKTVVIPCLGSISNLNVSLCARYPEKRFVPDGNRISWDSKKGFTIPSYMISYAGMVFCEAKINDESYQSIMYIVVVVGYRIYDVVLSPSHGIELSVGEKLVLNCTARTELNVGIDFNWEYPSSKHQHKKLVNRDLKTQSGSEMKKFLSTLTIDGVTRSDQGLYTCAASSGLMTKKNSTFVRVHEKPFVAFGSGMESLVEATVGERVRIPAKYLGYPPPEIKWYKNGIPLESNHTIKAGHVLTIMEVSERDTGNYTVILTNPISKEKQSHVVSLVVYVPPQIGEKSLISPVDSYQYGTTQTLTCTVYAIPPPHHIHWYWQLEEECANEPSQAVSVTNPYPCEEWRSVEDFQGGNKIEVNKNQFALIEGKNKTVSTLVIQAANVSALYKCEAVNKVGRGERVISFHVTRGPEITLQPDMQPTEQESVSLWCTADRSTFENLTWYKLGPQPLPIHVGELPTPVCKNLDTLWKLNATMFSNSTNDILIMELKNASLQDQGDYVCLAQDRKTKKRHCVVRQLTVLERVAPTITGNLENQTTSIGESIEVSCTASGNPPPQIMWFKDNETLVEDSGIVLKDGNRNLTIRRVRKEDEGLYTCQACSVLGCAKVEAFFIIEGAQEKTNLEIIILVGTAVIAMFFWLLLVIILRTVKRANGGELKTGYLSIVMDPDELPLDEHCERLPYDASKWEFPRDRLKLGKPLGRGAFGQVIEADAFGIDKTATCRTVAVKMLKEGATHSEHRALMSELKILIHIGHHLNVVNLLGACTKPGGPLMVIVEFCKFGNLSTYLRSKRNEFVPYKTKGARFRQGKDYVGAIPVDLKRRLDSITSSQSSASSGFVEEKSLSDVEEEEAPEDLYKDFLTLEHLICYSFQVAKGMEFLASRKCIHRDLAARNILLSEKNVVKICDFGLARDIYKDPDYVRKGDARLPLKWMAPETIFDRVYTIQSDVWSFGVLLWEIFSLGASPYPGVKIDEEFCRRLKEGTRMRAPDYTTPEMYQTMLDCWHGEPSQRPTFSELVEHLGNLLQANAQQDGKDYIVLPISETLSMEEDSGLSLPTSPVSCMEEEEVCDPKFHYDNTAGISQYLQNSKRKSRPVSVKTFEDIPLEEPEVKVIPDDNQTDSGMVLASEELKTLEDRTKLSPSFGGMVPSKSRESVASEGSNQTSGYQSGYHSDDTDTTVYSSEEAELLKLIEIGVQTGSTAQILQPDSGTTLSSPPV

Measured: IC50

Sequence of C-Raf (P04049 whole entry): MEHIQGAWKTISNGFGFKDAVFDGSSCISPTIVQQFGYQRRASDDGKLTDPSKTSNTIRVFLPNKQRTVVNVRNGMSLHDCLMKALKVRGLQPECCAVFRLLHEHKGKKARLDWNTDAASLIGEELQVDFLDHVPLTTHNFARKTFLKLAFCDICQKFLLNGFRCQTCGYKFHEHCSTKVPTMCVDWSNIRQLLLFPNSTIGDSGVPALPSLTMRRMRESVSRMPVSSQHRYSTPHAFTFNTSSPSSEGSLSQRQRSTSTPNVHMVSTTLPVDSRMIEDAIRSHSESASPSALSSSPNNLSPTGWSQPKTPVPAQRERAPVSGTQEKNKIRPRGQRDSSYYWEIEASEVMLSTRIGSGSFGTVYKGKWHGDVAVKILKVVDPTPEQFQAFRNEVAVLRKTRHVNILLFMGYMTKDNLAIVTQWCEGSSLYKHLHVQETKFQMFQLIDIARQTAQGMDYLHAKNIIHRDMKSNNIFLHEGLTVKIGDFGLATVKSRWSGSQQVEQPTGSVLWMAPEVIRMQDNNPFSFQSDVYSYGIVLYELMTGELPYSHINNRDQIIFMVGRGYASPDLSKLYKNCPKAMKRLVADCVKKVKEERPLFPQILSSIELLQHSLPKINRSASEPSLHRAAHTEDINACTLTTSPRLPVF
Sequence of B-Raf V600E (P15056 whole entry V600E): as the sequence (P15056 whole entry) above, with V600E counted along it

O=C(c1c(F)ccc(NS(=O)(=O)C2CCCC2)c1F)c1c[nH]c2nccc(Cl)c12 [P-2368, Cyclopentanesulfonic acid [3-(4-chloro-1H-pyrrolo[2,3-b]pyridine-3-carbonyl)-2,4-difluoro-phenyl]-amide]
not listed: Kit | Kdr
≤ 10 µM: all other assays above

CCCC(C)S(=O)(=O)Nc1ccc(F)c(C(=O)c2c[nH]c3nccc(OC)c23)c1F (stereo not drawn) [P-2316, Pentane-2-sulfonic acid [2,4-difluoro-3-(4-methoxy-1H-pyrrolo[2,3-b]pyridine-3-carbonyl)-phenyl]-amide]
≤ 10 µM: B-Raf V600E | Src | A-Raf

CCC(C)S(=O)(=O)Nc1ccc(F)c(C(=O)c2c[nH]c3ncc(C#N)cc23)c1F (stereo not drawn) [P-2317, Butane-2-sulfonic acid [3-(5-cyano-1H-pyrrolo[2,3-b]pyridine-3-carbonyl)-2,4-difluoro-phenyl]-amide]
not listed: Src | Kdr
≤ 10 µM: all other assays above

COc1ccnc2[nH]cc(C(=O)c3c(F)ccc(NS(=O)(=O)N4CCOCC4)c3F)c12 [P-2396, Morpholine-4-sulfonic acid [2,4-difluoro-3-(4-methoxy-1H-pyrrolo[2,3-b]pyridine-3-carbonyl)-phenyl]-amide]
not listed: Kit | Kdr
≤ 10 µM: all other assays above

O=C(c1c(F)ccc(NS(=O)(=O)N2CCOCC2)c1F)c1c[nH]c2nccc(Cl)c12 [P-2397, Morpholine-4-sulfonic acid [3-(4-chloro-1H-pyrrolo[2,3-b]pyridine-3-carbonyl)-2,4-difluoro-phenyl]-amide]
not listed: Kit | Kdr
≤ 10 µM: all other assays above

CC(C)S(=O)(=O)Nc1ccc(F)c(C(=O)c2c[nH]c3nccc(Cl)c23)c1F [P-2284, Propane-2-sulfonic acid [3-(4-chloro-1H-pyrrolo[2,3-b]pyridine-3-carbonyl)-2,4-difluoro-phenyl]-amide]
≤ 10 µM: C-Raf | B-Raf V600E | Src | A-Raf

COc1ccnc2[nH]cc(C(=O)c3c(F)ccc(NS(=O)(=O)C4CCC4)c3F)c12 [P-2364, Cyclobutanesulfonic acid [2,4-difluoro-3-(4-methoxy-1H-pyrrolo[2,3-b]pyridine-3-carbonyl)-phenyl]-amide]
not listed: Kit
≤ 10 µM: all other assays above

N#Cc1cnc2[nH]cc(C(=O)c3cccc(NS(=O)(=O)c4ccc(C(F)(F)F)cc4)c3F)c2c1 [P-2057, N-[3-(5-Cyano-1H-pyrrolo[2,3-b]pyridine-3-carbonyl)-2-fluoro-phenyl]-4-trifluoromethyl-benzenesulfonamide]
not listed: Kit | Kdr
≤ 10 µM: all other assays above

N#Cc1cnc2[nH]cc(C(=O)c3c(F)ccc(NS(=O)(=O)CC(F)(F)F)c3F)c2c1 [P-2336, 2,2,2-Trifluoro-ethanesulfonic acid [3-(5-cyano-1H-pyrrolo[2,3-b]pyridine-3-carbonyl)-2,4-difluoro-phenyl]-amide]
not listed: Kit | Kdr
≤ 10 µM: all other assays above

CCCC(C)S(=O)(=O)Nc1ccc(F)c(C(=O)c2c[nH]c3ncc(C#N)cc23)c1F (stereo not drawn) [P-2314, Pentane-2-sulfonic acid [3-(5-cyano-1H-pyrrolo[2,3-b]pyridine-3-carbonyl)-2,4-difluoro-phenyl]-amide]
≤ 10 µM: C-Raf | B-Raf V600E | Kit | A-Raf

CCN(CC)S(=O)(=O)Nc1ccc(F)c(C(=O)c2c[nH]c3ncc(OC)cc23)c1F [P-2389, N,N-diethylamino-sulfonic acid [2,4-difluoro-3-(5-methoxy-1H-pyrrolo[2,3-b]pyridine-3-carbonyl)-phenyl]-amide]
not listed: C-Raf | B-Raf
≤ 10 µM: all other assays above

N#Cc1ccnc2[nH]cc(C(=O)c3c(F)ccc(NS(=O)(=O)c4ccc(F)cc4)c3F)c12 [P-2035, N-[3-(4-Cyano-1H-pyrrolo[2,3-b]pyridine-3-carbonyl)-2,4-difluoro-phenyl]-4-fluoro-benzenesulfonamide]
not listed: Src | Kdr
≤ 10 µM: all other assays above

N#Cc1cnc2[nH]cc(C(=O)c3cccc(NS(=O)(=O)c4ccccc4)c3F)c2c1 [P-2056, N-[3-(5-Cyano-1H-pyrrolo[2,3-b]pyridine-3-carbonyl)-2-fluoro-phenyl]-benzenesulfonamide]
not listed: Kit | Kdr
≤ 10 µM: all other assays above

N#Cc1ccnc2[nH]cc(C(=O)c3c(F)ccc(NS(=O)(=O)c4ccccn4)c3F)c12 [P-2078, Pyridine-2-sulfonic acid [3-(4-cyano-1H-pyrrolo[2,3-b]pyridine-3-carbonyl)-2,4-difluoro-phenyl]-amide]
not listed: Kit | Kdr
≤ 10 µM: all other assays above

N#Cc1ccnc2[nH]cc(C(=O)c3c(F)ccc(NS(=O)(=O)CCC(F)(F)F)c3F)c12 [P-2332, 3,3,3-Trifluoro-propane-1-sulfonic acid [3-(4-cyano-1H-pyrrolo[2,3-b]pyridine-3-carbonyl)-2,4-difluoro-phenyl]-amide]
not listed: Kit | Kdr
≤ 10 µM: all other assays above

CCC(C)S(=O)(=O)Nc1ccc(F)c(C(=O)c2c[nH]c3nccc(C#N)c23)c1F (stereo not drawn) [P-2321, Butane-2-sulfonic acid [3-(4-cyano-1H-pyrrolo[2,3-b]pyridine-3-carbonyl)-2,4-difluoro-phenyl]-amide]
not listed: Kit
≤ 10 µM: all other assays above
